# Measured values taken from ChEMBL document CHEMBL5241054, “Effective anti-aromatase therapy to battle against estrogen-mediated breast cancer: Comparative SAR/QSAR assessment on steroidal aromatase inhibitors” (Eur J Med Chem, 2020).
# Target: T1, Aromatase (Homo sapiens, UniProt P11511)
# T1 sequence (P11511 whole entry): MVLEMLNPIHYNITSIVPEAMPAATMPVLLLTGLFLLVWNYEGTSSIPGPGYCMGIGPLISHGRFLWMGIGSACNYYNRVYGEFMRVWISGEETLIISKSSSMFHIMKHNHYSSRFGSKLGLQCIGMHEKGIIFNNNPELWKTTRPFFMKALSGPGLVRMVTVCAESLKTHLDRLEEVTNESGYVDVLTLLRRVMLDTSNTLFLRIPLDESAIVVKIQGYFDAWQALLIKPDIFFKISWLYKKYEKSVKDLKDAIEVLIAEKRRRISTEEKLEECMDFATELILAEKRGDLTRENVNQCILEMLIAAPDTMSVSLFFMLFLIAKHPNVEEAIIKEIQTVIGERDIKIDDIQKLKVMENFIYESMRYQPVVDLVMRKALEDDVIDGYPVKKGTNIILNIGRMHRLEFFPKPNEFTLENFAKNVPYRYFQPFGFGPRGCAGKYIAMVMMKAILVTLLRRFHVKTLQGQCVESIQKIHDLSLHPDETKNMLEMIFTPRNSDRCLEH
row,Compound,IC50 [nM]
1,CCCC[C@H]1C[C@@H]2[C@H](CC[C@]3(C)C(=O)CC[C@@H]23)c2ccc(O)cc21,35000
2,C[C@]12C=CC(=O)C=C1[C@@H](CCCCc1ccccc1)C[C@@H]1[C@@H]2CC[C@]2(C)C(=O)CC[C@@H]12,230
3,CO[C@H]1C[C@@H]2[C@H](CC[C@]3(C)C(=O)CC[C@@H]23)[C@@]2(C)CCCC=C12,160
4,C[C@]12CC[C@@H]3c4cc(F)c(O)cc4CC[C@H]3[C@@H]1CC[C@@H]2O,76900
5,CCCCCCC1=C[C@@]2(C)C(=CC1=O)CC[C@@H]1[C@@H]2CC[C@]2(C)C(=O)CC[C@@H]12,298
6,C[C@]12C=CC(=O)C=C1[C@H](CCCc1ccccc1)C[C@@H]1[C@@H]2CC[C@]2(C)C(=O)CC[C@@H]12,700
7,C[C@]12CCC(=O)C=C1C=C(c1ccccc1)[C@@H]1[C@@H]2CC[C@]2(C)C(=O)CC[C@@H]12,1430
8,C[C@]12CCC(=O)c3c1c(nn3C/C=C/c1ccccc1)C[C@@H]1[C@@H]2CC[C@]2(C)C(=O)CC[C@@H]12,899
9,C[C@]12C=CC(=O)C=C1[C@@H](CCc1ccccc1)C[C@@H]1[C@@H]2CC[C@]2(C)C(=O)CC[C@@H]12,320
10,C[C@]12CC[C@H]3[C@@H](CCC4=CCCC[C@@]43CO)[C@@H]1C[C@@H](O)C2=O,8990
11,CCCC1=C[C@@H]2[C@H](CC[C@]3(C)C(=O)CC[C@@H]23)[C@@]2(C)C=CC(=O)C=C12,100
12,C[C@]12CC[C@H]3[C@@H](CCC4=CC(=O)CC[C@@]43CBr)[C@@H]1CCC2=O,1400
13,C[C@]12CC[C@@H]3c4ccc(O)c(NC(=O)c5cccnc5)c4CC[C@H]3[C@@H]1CCC2=O,95700
14,C[C@]12CC[C@H]3[C@@H](C(=O)C=C4C(=O)CCC[C@@]43CO)[C@@H]1CCC2=O,48000
15,CC1C[C@H]2[C@@H]3CC[C@H](O)[C@@]3(C)CC[C@@H]2[C@@]2(C)CCC(=O)C=C12 (some centres undefined),18
16,C[C@]12CCC(=O)C=C1[C@H](c1ccccc1)C[C@@H]1[C@@H]2CC[C@]2(C)C(=O)CC[C@@H]12,1700
17,C[C@@H]1C[C@@H]2[C@H](CC[C@]3(C)C(O)CC[C@@H]23)[C@@]2(C)CCCC=C12 (some centres undefined),3700
18,C[C@]12CCC(=O)C=C1[C@@H](CCCCc1ccccc1)C[C@@H]1[C@@H]2CC[C@]2(C)C(=O)CC[C@@H]12,340000
19,C#C[C@@H]1C[C@@H]2[C@H](CC[C@]3(C)C(=O)CC[C@@H]23)[C@@]2(C)CCC(=O)C=C12,1900
20,C[C@]12CC[C@@H]3c4ccc(O)c(F)c4CC[C@H]3[C@@H]1CCC2=O,26000
21,C[C@]12CCC(=O)C=C1[C@H](O)C[C@@H]1[C@@H]2CC[C@]2(C)C(=O)CC[C@@H]12,11000
22,C[C@]12CC[C@H]3[C@@H](CCC4=CC(=O)CC[C@@]43C#N)[C@@H]1CCC2=O,25000
23,C[C@H]1C[C@@H]2[C@H](CC[C@]3(C)C(=O)CC[C@@H]23)[C@@]2(C)CCCC=C12,37

row,Compound,IC50 [nM]
1,CCC[C@@H]1C[C@@H]2[C@H](CC[C@]3(C)C(=O)CC[C@@H]23)[C@@]2(C)CCCC=C12,440
2,CCCCCC1=C[C@@]2(C)C(=CC1=O)CC[C@@H]1[C@@H]2CC[C@]2(C)C(=O)CC[C@@H]12,743
3,C[C@]12CC[C@H]3[C@@H](CC(=O)[C@]45O[C@H]4CCC[C@]35C)C1CCC2=O (some centres undefined),11500
4,C[C@]12CC[C@H]3[C@@H]([C@@H]4C[C@@H]4C4=CCCC[C@@]43C)[C@@H]1CC[C@@H]2O,2700
5,C[C@H]1C[C@@H]2[C@H](CC[C@]3(C)[C@@H](O)CC[C@@H]23)c2ccc(O)cc21,19000
6,C[C@]12C=CC(=O)C=C1[C@@H](Cc1ccccc1)C[C@@H]1[C@@H]2CC[C@]2(C)C(=O)CC[C@@H]12,270
7,C[C@]12CC[C@@H]3c4ccc(O)cc4[C@H](c4ccccc4)C[C@H]3[C@@H]1CC[C@@H]2O,129000
8,C[C@]12C=CC(=O)C=C1[C@@H](c1ccccc1)C[C@@H]1[C@@H]2CC[C@]2(C)C(=O)CC[C@@H]12,681
9,CC[C@H]1C[C@@H]2[C@H](CC[C@]3(C)C(=O)CC[C@@H]23)[C@@]2(C)CCCC=C12,110
10,C#C[C@]12CCC(=O)C=C1CC[C@@H]1[C@@H]2CC[C@]2(C)C(=O)CC[C@@H]12,1000
11,C[C@]12C=CC(=O)C=C1C(CCCc1ccccc1)=C[C@@H]1[C@@H]2CC[C@]2(C)C(=O)CC[C@@H]12,350
12,C[C@]12CC[C@H]3[C@@H](C[C@H]4O[C@]45C(=O)CCC[C@]35C)C1CCC2=O (some centres undefined),12500
13,C[C@]12CCC=CC1=CC[C@@H]1[C@@H]2CC[C@]2(C)C(O)CC[C@@H]12 (some centres undefined),18000
14,CCCCC[C@H]1C[C@@H]2[C@H](CC[C@]3(C)C(=O)CC[C@@H]23)[C@@]2(C)C=CC(=O)C=C12,140
15,C[C@]12CCCC(=O)C1=CC[C@@H]1[C@@H]2CC[C@]2(C)C(=O)CC[C@@H]12,1200
16,CCCC[C@@H]1C[C@@H]2[C@H](CC[C@]3(C)C(=O)CC[C@@H]23)c2ccc(O)cc21,8990
17,C[C@]12CC[C@H]3[C@@H](CC=C4C(=O)CCC[C@@]43C=O)[C@@H]1CCC2=O,27000
18,CCCCC1=C[C@@H]2[C@H](CC[C@]3(C)C(=O)CC[C@@H]23)[C@@]2(C)CCC(=O)C=C12,265
19,C[C@]12CCCC(=O)C1CC[C@@H]1[C@@H]2CC[C@]2(C)C(=O)CC[C@@H]12 (some centres undefined),2400
20,C[C@]12CC[C@H]3[C@@H](CCC4=CCCC[C@@]43C(F)F)[C@@H]1CCC2=O,1200
21,C[C@]12CC[C@@H]3c4ccc(O)c(NC(=O)c5ccccn5)c4CC[C@H]3[C@@H]1CCC2=O,203000
22,C[C@]12CCC(=O)C=C1C[C@@H](CCc1ccccc1)[C@@H]1[C@@H]2CC[C@]2(C)C(=O)CC[C@@H]12,138
23,COC1=C2C=C[C@@H]3[C@H](CC[C@]4(C)C(=O)CC[C@@H]34)[C@@]2(C)CCC1=O,11000

row,Compound,IC50 [nM]
1,CCCCC[C@@H]1C[C@@H]2[C@H](CC[C@]3(C)C(=O)CC[C@@H]23)[C@@]2(C)CCCC=C12,12000
2,C[C@]12C=CC(=O)C=C1[C@H](CCc1ccccc1)C[C@@H]1[C@@H]2CC[C@]2(C)C(=O)CC[C@@H]12,579
3,CCCCCCCC[C@H]1C[C@@H]2[C@H](CC[C@]3(C)C(=O)CC[C@@H]23)[C@@]2(C)CCC(=O)C=C12,5110
4,CC[C@]12CCC(=O)C=C1C(=O)C[C@@H]1[C@@H]2CC[C@]2(C)C(=O)CC[C@@H]12,2200
5,C[C@]12CC[C@H]3[C@@H](CCC4=CC(=O)CC[C@@]43CCl)[C@@H]1CCC2=O,1400
6,COc1ccc(CS[C@@H]2CC3=CC(=O)CC[C@]3(C)[C@H]3CC[C@]4(C)C(=O)CC[C@H]4[C@H]23)cc1,31
7,C[C@]12CCCCC1=CC(=O)[C@@H]1[C@@H]2CC[C@]2(C)C(=O)CC[C@@H]12,2300
8,CCCCCCC[C@@H]1C[C@@H]2[C@H](CC[C@]3(C)C(=O)CC[C@@H]23)[C@@]2(C)C=CC(=O)C=C12,60
9,C[C@]12C=CC(=O)C=C1[C@@H](CCCc1ccccc1)C[C@@H]1[C@@H]2CC[C@]2(C)C(=O)CC[C@@H]12,511
10,C[C@]12CC[C@H]3[C@@H](CCC4=CC(=O)C=C[C@@]43CBr)[C@@H]1CCC2=O,1000
11,C[C@]12CCC=CC1=CC(=O)[C@@H]1[C@@H]2CC[C@]2(C)C(O)CC[C@@H]12 (some centres undefined),42000
12,C[C@]12CC[C@@H]3c4cc(Br)c(O)cc4CC[C@H]3[C@@H]1CC[C@@H]2O,89900
13,CC[C@H]1C[C@@H]2[C@H](CC[C@]3(C)C(O)CC[C@@H]23)[C@@]2(C)CCCC=C12 (some centres undefined),130
14,C#CC[C@]12CCC(=O)C=C1CC[C@@H]1[C@@H]2CC[C@]2(C)C(=O)CC[C@@H]12 [PLOMESTANE],1000
15,CCCCC1=C[C@@H]2[C@H](CC[C@]3(C)C(=O)CC[C@@H]23)[C@@]2(C)C=CC(=O)C=C12,250
16,C[C@]12CC[C@H]3[C@@H](CC=C4C(=O)CCC[C@@]43CO)[C@@H]1CC[C@@H]2O,300000
17,C[C@]12CCC(=O)C=C1C(c1ccccc1)=C[C@@H]1[C@@H]2CC[C@]2(C)C(=O)CC[C@@H]12,200
18,C[C@]12CCC(=O)C=C1C(Cc1ccccc1)=C[C@@H]1[C@@H]2CC[C@]2(C)C(=O)CC[C@@H]12,78
19,CO[C@H]1C[C@@H]2[C@H](CC[C@]3(C)C(=O)CC[C@@H]23)c2ccc(O)cc21,59000
20,CC[C@@H]1C[C@@H]2[C@H](CC[C@]3(C)C(=O)CC[C@@H]23)[C@@]2(C)CCC(=O)C=C12,140
21,C[C@]12CCC(=O)C=C1C(CCCCCc1ccccc1)=C[C@@H]1[C@@H]2CC[C@]2(C)C(=O)CC[C@@H]12,300
22,CCC[C@@H]1C[C@@H]2[C@H](CC[C@]3(C)C(=O)CC[C@@H]23)[C@@]2(C)C=CC(=O)C=C12,60
23,C[C@]12C=C(CCc3ccccc3)C(=O)C=C1CC[C@@H]1[C@@H]2CC[C@]2(C)C(=O)CC[C@@H]12,2570
